Laboratory results as given in patent publication US20190224201A1, “PHARMACEUTICAL COMPOSITION COMPRISING NEPTINIB OR SALT THEREOF AND METHOD FOR CONTROLLING IMPURITY THEREOF” (SHENZHEN NEPTUNUS PHARMACEUTICAL RESEARCH INSTITUTE CO., …, priority 2016, published 2019).

Columns and labels:
Assay type in all cases: physicochemical
[1] = API and excipients compatibility study (10 days of stress testing of mixed powders)
[2] = Risk assessment of the API and excipients compatibility
Description: Level 1 (low risk): maximum single impurity is less than 0.1% and total impurity is less than 0.2%;
Level 2 (medium risk): maximum single impurity is 0.1-0.2% or total impurity is 0.2%-0.4%;
Level 3 (high risk): maximum single impurity is more than 0.2% or total impurity is more than 0.4%.

[3] = Accelerated stability test, detection of impurity A and total impurity by HPLC; conditions: active ingredient alone, accelerated stability test at 40° C. for 6 months
Description: The method for detecting impurity A and total impurity was shown as follows:
Equipment: Agilent 1260 series;
Column: XBridge Shield RP18 column (100×4.6 mm, 3.5 μm);
Mobile phase A: 0.05 mol/L potassium dihydrogen phosphate solution (adjusted to pH 7.2 with sodium hydroxide solution)-acetonitrile (20:80);
Mobile phase B: 0.05 mol/L potassium dihydrogen phosphate solution (adjusted to pH 7.2 with sodium hydroxide solution)-acetonitrile (40:60);
Detection wavelength: 247 nm;
Column temperature: 30° C.;
Solvent: acetonitrile-water (50:50).

[4] = Day 10, Illumination (4500 ± 5001x)

Structure (SMILES): CCOc1cc2ncnc(Nc3ccc(F)c(Cl)c3)c2cc1NC(=O)/C=C/CN(C)C [API, (E)-N-(4-((3-chloro-4-fluorophenyl)amino)-7-ethoxyquinazolin-6-yl)-4-(dimethylamino)but-2-enamide]
- Maximum single impurity (%) ([1]; Day 0): 0.02%
- Total impurity (%) ([1]; Day 0): 0.02%
- Maximum single impurity (%) ([1]; Day 10, 60° C. ± 2° C.): 0.02%
- Total impurity (%) ([1]; Day 10, 60° C. ± 2° C.): 0.04%
- Maximum single impurity (%) [1, 4]: 0.12%
- Total impurity (%) [1, 4]: 0.14%
- Maximum single impurity (%) ([1]; Day 10, RH75% ± 5%): 0.02%
- Total impurity (%) ([1]; Day 10, RH75% ± 5%): 0.02%
- Maximum single impurity (%) ([1]; Day 10, RH92.5% ± 5%): 0.02%
- Total impurity (%) ([1]; Day 10, RH92.5% ± 5%): 0.02%
- Risk level assessment value 60° C. ([2]; 60° C., 10 days stress testing): 1 (Level 1 (low risk): maximum single impurity is less than 0.1% and total impurity is less than 0.2%)
- Risk level assessment value Illumination ([2]; Illumination, 10 days stress testing): 2 (Level 2 (medium risk): maximum single impurity is 0.1-0.2% or total impurity is 0.2%-0.4%)
- Risk level assessment value RH75% ([2]; RH75%, 10 days stress testing): 1 (Level 1 (low risk): maximum single impurity is less than 0.1% and total impurity is less than 0.2%)
- Risk level assessment value RH92.5% ([2]; RH92.5%, 10 days stress testing): 1 (Level 1 (low risk): maximum single impurity is less than 0.1% and total impurity is less than 0.2%)
- Risk level assessment value Total ([2]; sum over RH75%, RH92.5%, 60° C., Illumination): 5
- change in the content of impurities in the active ingredient [3]: no significant change
